Assay results taken from publication PMC11477000, “Enantioselective Binding of Proton Pump Inhibitors to Alpha1-Acid Glycoprotein and Human Serum Albumin—A Chromatographic, Spectroscopic, and In Silico Study” (International Journal of Molecular Sciences, 2024).

Tests used:
[1] = biological target: T1, human serum albumin (HSA) (Homo sapiens, UniProt P02768); assay: HPLC on HSA-based chiral stationary phase (Daicel Chiralpak HSA column); assay type: binding; conditions: HSA column, 10 mM pH 7 phosphate buffer, 25 °C
T1 sequence (P02768 25-609): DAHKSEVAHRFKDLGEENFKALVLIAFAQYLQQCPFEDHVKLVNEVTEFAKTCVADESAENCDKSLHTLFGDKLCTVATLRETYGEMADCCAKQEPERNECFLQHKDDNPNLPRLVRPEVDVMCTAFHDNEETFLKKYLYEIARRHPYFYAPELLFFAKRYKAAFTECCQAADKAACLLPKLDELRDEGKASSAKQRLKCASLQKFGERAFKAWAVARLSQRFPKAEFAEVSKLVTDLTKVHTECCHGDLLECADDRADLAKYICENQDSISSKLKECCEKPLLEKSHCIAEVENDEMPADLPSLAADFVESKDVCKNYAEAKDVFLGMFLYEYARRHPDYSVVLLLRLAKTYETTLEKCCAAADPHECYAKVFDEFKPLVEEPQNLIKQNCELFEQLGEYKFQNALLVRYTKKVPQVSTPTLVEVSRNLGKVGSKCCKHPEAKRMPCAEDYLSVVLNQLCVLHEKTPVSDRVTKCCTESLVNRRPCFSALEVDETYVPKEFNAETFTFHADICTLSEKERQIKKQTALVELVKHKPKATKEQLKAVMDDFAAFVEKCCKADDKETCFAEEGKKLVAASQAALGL
Method: HPLC using a protein-based chiral stationary phase is a fully automated method for obtaining rapid information about the binding of compounds to the respective proteins. Enantioseparation occurs in the case of unequal binding constants of the individual enantiomers to the immobilized proteins, thus allowing enantioselective binding to be characterized even when a racemic mixture was injected. As a preliminary step, the enantiospecific binding was investigated on columns containing AGP and HSA in various alcohol:buffer mixtures. A pH 7 phosphate buffer was employed as the aqueous part of the mobile phase, while for the organic part, three different alcohols were evaluated.
In the following step, we investigated the effect of changing some other chromatographic conditions on the protein binding. The pH of the aqueous phase influenced the protonation state of both the analyte and the proteins. It should be noted that the pH tolerance of protein-based columns is narrow due to the possible denaturation of proteins. Taking into account the guidelines of the manufacturer, three different pH values were investigated (pH 6, 6.5, and 7) at a 95:5 (v/v%) buffer:IPA eluents ratio [49]. The buffer was uniformly 10 mM phosphate. […] The effect of different buffer constituents was also evaluated. In addition to phosphate buffer, ammonium acetate, ammonium bicarbonate, and sodium citrate were tested and compared under the same conditions.
Chromatographic measurements were carried out on two separate HPLC systems. The AGP binding study was performed on a Waters 2695e chromatographic system paired with a Waters 2996 PDA detector, controlled by Empower 3 FR5 (Waters Corp., Milford, MA, USA), while the HSA binding study was performed on an Agilent 1100 HPLC system, consisting of an inline degasser (G1322A), a quaternary pump (G1311A), an automatic injector (G1329A) paired with sample thermostat (G1330A), a column thermostat (G1316A), and a diode array detector (G1315A) with Agilent Chemstation B04.03-SP2 software (Agilent, Bronnwald, Germany). For the binding studies, two protein-based chiral stationary phases were utilized. The chromatographic binding study for AGP was conducted on a ChromTech Chiral-AGP column (150 mm × 4.0 mm; ChromTech Ltd., Congleton, UK), while the binding study for HSA was performed on a Daicel Chiralpak HSA column (50 mm × 4.0 mm; Daicel Corp., Osaka, Japan). The detection wavelength was 210 nm for all measurements. The stock solutions of PPIs were prepared at a concentration of 1 mg/mL in MeOH. Subsequent dilutions were prepared using water. The injected samples were mixed and diluted from the stock solutions. The final concentration for the eutomer was 0.2 mg/mL, and for the distomer, it was 0.1 mg/mL. A volume of 2 μL was injected. To mitigate the instability of PPIs in aqueous solutions, the samples were kept at a temperature of 4 °C.

[2] = biological target: T1, human serum albumin (HSA); assay: Displacement chromatography on HSA column with warfarin and ibuprofen as competitors; assay type: binding; conditions: IPA:10 mM pH 7 phosphate buffer 1:99, 25 °C
Method: For identification of the binding site of HSA, a displacement chromatography and fluorescence displacement study were performed. In the case of chromatography, to the mobile phase, increasing concentrations of the competitors, warfarin and ibuprofen, that are known to bind to specific binding sites on HSA, Sudlow site I and Sudlow site II, respectively, were added. In the case of the fluorescence displacement study, the fluorescence quenching data of the PPI-HSA system in the presence of warfarin and ibuprofen were investigated.
(Chromatographic parameter: Column temperature: 25 °C,
mobile phase: IPA : 10 mM pH 7 sodium phosphate buffer 1:99, flow rate: 0.7 mL/min, detection

Row | k1 retention factor (first-eluting enantiomer) ([1]; 1% EtOH) | k2 retention factor (second-eluting enantiomer) ([1]; 1% EtOH) | k1 retention factor (first-eluting enantiomer) ([1]; 1% IPA) | k2 retention factor (second-eluting enantiomer) ([1]; 1% IPA) | k1 retention factor (first-eluting enantiomer) ([1]; 1% MeOH) | k2 retention factor (second-eluting enantiomer) ([1]; 1% MeOH) | k1 retention factor (first-eluting enantiomer) ([1]; 2.5% EtOH) | k2 retention factor (second-eluting enantiomer) ([1]; 2.5% EtOH) | k1 retention factor (first-eluting enantiomer) ([1]; 2.5% IPA) | k2 retention factor (second-eluting enantiomer) ([1]; 2.5% IPA) | k1 retention factor (first-eluting enantiomer) ([1]; 2.5% MeOH) | k2 retention factor (second-eluting enantiomer) ([1]; 2.5% MeOH) | k1 retention factor (first-eluting enantiomer) ([1]; 5% EtOH) | k2 retention factor (second-eluting enantiomer) ([1]; 5% EtOH) | k1 retention factor (first-eluting enantiomer) ([1]; 5% IPA) | k2 retention factor (second-eluting enantiomer) ([1]; 5% IPA) | k1 retention factor (first-eluting enantiomer) ([1]; 5% MeOH) | k2 retention factor (second-eluting enantiomer) ([1]; 5% MeOH) | k1 retention factor (first-eluting enantiomer) ([1]; 7.5% EtOH) | k2 retention factor (second-eluting enantiomer) ([1]; 7.5% EtOH) | SMILES | also measured
1 | 9.89 | 9.89 | 9.53 | 9.53 | 7.79 | 7.79 | 5.53 | 5.53 | 8.66 | 8.66 | 6.37 | 6.37 | 3.68 | 3.68 | 4.34 | 4.34 | 4.95 | 4.95 | 2.61 | 2.61 | COc1ccc2[nH]c([S+]([O-])Cc3ncc(C)c(OC)c3C)nc2c1 (centres unmarked) [Omeprazole, omeprazole] | k1 retention factor (first-eluting enantiomer) ([1]; 7.5% IPA): 2.82; k2 retention factor (second-eluting enantiomer) ([1]; 7.5% IPA): 2.82; k1 retention factor (first-eluting enantiomer) ([1]; 7.5% MeOH): 3.82; k2 retention factor (second-eluting enantiomer) ([1]; 7.5% MeOH): 3.82; k1 retention factor (first-eluting enantiomer) ([1]; 10% EtOH): 1.97; k2 retention factor (second-eluting enantiomer) ([1]; 10% EtOH): 1.97; k1 retention factor (first-eluting enantiomer) ([1]; 10% IPA): 2.03; k2 retention factor (second-eluting enantiomer) ([1]; 10% IPA): 2.03; k1 retention factor (first-eluting enantiomer) ([1]; 10% MeOH): 2.97; k2 retention factor (second-eluting enantiomer) ([1]; 10% MeOH): 2.97; k1 retention factor (first-eluting enantiomer) ([1]; 12.5% IPA): 1.50; k2 retention factor (second-eluting enantiomer) ([1]; 12.5% IPA): 1.50; k retention factor ([2]; ibuprofen 0 mM): 9.53; k retention factor ([2]; ibuprofen 0.01 mM): 7.96; k retention factor ([2]; ibuprofen 0.05 mM): 6.31; k retention factor ([2]; ibuprofen 0.1 mM): 5.22; k retention factor ([2]; warfarin 0 mM): 9.53; k retention factor ([2]; warfarin 0.01 mM): 8.57; k retention factor ([2]; warfarin 0.05 mM): 7.71; k retention factor ([2]; warfarin 0.1 mM): 6.98
2 | 6.16 | 6.16 | 7.21 | 7.21 | 6.61 | 6.61 | 3.97 | 3.97 | 5.45 | 5.45 | 5.08 | 5.08 | 2.87 | 2.87 | 3.32 | 3.32 | 3.68 | 3.68 | 2.16 | 2.16 | COCCCOc1ccnc(C[S+]([O-])c2nc3ccccc3[nH]2)c1C (centres unmarked) [Rabeprazole, rabeprazole] | k1 retention factor (first-eluting enantiomer) ([1]; 7.5% IPA): 2.37; k2 retention factor (second-eluting enantiomer) ([1]; 7.5% IPA): 2.37; k1 retention factor (first-eluting enantiomer) ([1]; 7.5% MeOH): 2.95; k2 retention factor (second-eluting enantiomer) ([1]; 7.5% MeOH): 2.95; k1 retention factor (first-eluting enantiomer) ([1]; 10% EtOH): 1.66; k2 retention factor (second-eluting enantiomer) ([1]; 10% EtOH): 1.66; k1 retention factor (first-eluting enantiomer) ([1]; 10% IPA): 1.79; k2 retention factor (second-eluting enantiomer) ([1]; 10% IPA): 1.79; k1 retention factor (first-eluting enantiomer) ([1]; 10% MeOH): 2.34; k2 retention factor (second-eluting enantiomer) ([1]; 10% MeOH): 2.34; k1 retention factor (first-eluting enantiomer) ([1]; 12.5% IPA): 1.37; k2 retention factor (second-eluting enantiomer) ([1]; 12.5% IPA): 1.37; k retention factor ([2]; ibuprofen 0 mM): 7.21; k retention factor ([2]; ibuprofen 0.01 mM): 6.67; k retention factor ([2]; ibuprofen 0.05 mM): 5.87; k retention factor ([2]; ibuprofen 0.1 mM): 5.05; k retention factor ([2]; warfarin 0 mM): 7.21; k retention factor ([2]; warfarin 0.01 mM): 5.81; k retention factor ([2]; warfarin 0.05 mM): 4.98; k retention factor ([2]; warfarin 0.1 mM): 4.73
